Source: paper PMC4081560 (PLoS ONE, 2014)
pEC50: −log10 of the molar value.

Test system: tested viruses (K/09, rK09/NA:Y275, K/2785)
Type: cell-based, 2009 pandemic H1N1 virus
Conditions: read-out: concentration sufficient to restrict viral replication (EC50)

## NC(=O)c1nc(F)cnc1O [Favipiravir, 6-fluoro-3-hydroxy-2-pyrazinecarboxamide]
  pEC50: 4.83 to 5.08
